The source of these data is patent US11045833B2, “Task specific ionic liquid-impregnated polymeric surface coatings for antibacterial, antifouling, and metal scavenging activity” (Massachusetts Institute of Technology, priority 2017, dated 2021).

One data set concerns Pseudomonas aeruginosa. The experiment in a line: Biofilm formation in flow cell with CVD polymer coating, inoculated medium flowed through. The data set is classed as cell-based. Conditions: IL encapsulated in CVD polymer film on flow cell; medium inoculated with P. aeruginosa. An excerpt:
Chemical vapor deposition (CVD) was used to cross-link a polymer and bind it to a flow cell surface using in a custom built vacuum reactor (Sharon Vacuum) previously described (Martin, T. P. et al. Biomaterials 2007, 28, 909-915; and Ozaydin-Ince, G. et al. J. Vac. Sci. Technol., A 2009, 27, 1135-1143). During CVD depositions, tert-butyl peroxide (TBPO) and monomers N,N-dimethylacrylamide ([…], FIG. 2A) and di(ethylene glycol) divinyl ether (DEGDVE, FIG. 2B) were introduced into the CVD reactor through mass flow controllers (1479 MFC, MKS Instruments). The grafting agent was trichlorovinylsilane (FIG. 2C), which covalently grafted the polymer network onto the surface via silanization. DMMA, which was the repeating unit in the polymer chains, was introduced into the chamber at a rate of about 2.8 mL/min. The crosslinker DEGDVE, which linked different polymer chains, was introduced into the chamber at a rate of 0.3 mL/min. The initiator TBPO was introduced into the chamber at a rate of about 1.0 mL/min. The substrate temperature was about 30° C., and the chamber pressure was about 400 mTorr. The ionic liquid was N-hexylethylenediaminium bis([…])amide, [HHex][Tf2N] (FIG. 1).
A flow cell had the bottom side CVD coated by the polymer as described in Example 2. One cell had the polymer film impregnated by an IL ([HHex][Tf2N]). […]

The nature of data set [1]: Desorption of polymer and ionic liquid from coated glass slides in water. Conditions: after a day in water. In kind it is physicochemical.
A short description of data set [2]: Ionic liquid leaching from ionogel by ICP mass spectrometry. The data set is classed as physicochemical. Conditions: IL trapped in ionogel.

With “N-hexylethylenediaminium bis(trifluoroethanesulfonyl)amide [[HHex][Tf2N]]”, the biofilm growth result with Pseudomonas aeruginosa is on record as “no biofilm growth”. Moreover, the “desorption of polymer and ionic liquid” value in data set [1] is given as “have not desorbed”. For the same substance, the “ionic liquid leaching over time” value in data set [2] is “lack of ionic liquid leaching over time”.
